We go through nine compounds from ChEMBL document CHEMBL1201862, “PubChem BioAssay data set” (2004).

What all share (test): NCI-60 cell line screen, 48 h
Assay [1] has as its system Malme-3M.
In assay [2] the test system is A549.
Assay [3] relates to K562.
The subject of assay [4] is MOLT-4.
In assay [5] the test system is SNB-75.
Assay [6] has as its system SK-MEL-28.
Assay [7] relates to LOX IMVI.
Assay [8] concerns OVCAR-8.
Assay [9] has as its system SK-MEL-5.
For assay [10], the system named is HCT-15.
Assay [11] has as its system HT-29.
Assay [12] deals with KM12.
Assay [13] has as its system HOP-62.
For assay [14], the system named is CAKI-1.
Assay [15] has as its system SR.
For assay [16], the system named is NCI/ADR-RES.
The subject of assay [17] is MDA-MB-435.
For assay [18], the system named is MCF7.

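Step 1: Grow cells in 96-well plates. Step 2: Expose to compound for 48 hours at 5 concentrations. Step 3: Interpolate endpoints linearly; if unreached, use highest concentration. GI50 marks 50% less growth.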 Calls of active or inactive are those of the source. Cut-off read from the data, not from the text of the source: active = GI50 up to about 1.1 µM and inactive = higher.

Take `Cc1cc(Cl)ccc1NC(=O)C1C(=O)N(c2ccc(Cl)cc2C)C(=O)/C1=N\N` (configuration not stated): the GI50 was 71.8 µM (inactive) in assay [1]; 34.4 µM (inactive) in assay [2]; 45.1 µM (inactive) in [3]; 27.9 µM (inactive) in assay [4]; 42.6 µM (inactive) in assay [5]; 52.5 µM (inactive) in assay [6]. Also, the GI50 in assay [7] is 51.2 µM (inactive); in assay [8], 48.3 µM (inactive); in [9] it was 30.5 µM (inactive); in assay [10] it was 34.8 µM; in assay [11], 53.6 µM (inactive); in assay [12] it was 25.4 µM (inactive). For the same compound, the GI50 is 40.7 µM (inactive) in assay [13], 35.6 µM (inactive) in [14] and 26.6 µM (inactive) in [15].
As to `O=C(O)CCC(NC(=O)c1ccc(CNc2nc3cc(C(F)(F)F)ccc3nc2C(=O)O)cc1)C(=O)O` (configuration not stated), the GI50 in assay [1], in assay [2], in assay [3], in [4], in assay [5] and in assay [6] was > 100 µM (inactive) in each case. Besides, the GI50 is > 100 µM (inactive) in assay [7]; > 100 µM (inactive) in assay [8]; > 100 µM in assay [10]; > 100 µM (inactive) in assay [11]; > 100 µM (inactive) in [12]; > 100 µM (inactive) in assay [13]. Further, the GI50 in assay [16], in assay [17], in assay [14] and in assay [15] was > 100 µM (inactive) throughout.
For `Cc1ccc(C(=O)/C=C(\O)C(=O)NC23CC4CC(CC(C4)C2)C3)cc1`, the GI50 was > 10 µM (inactive) in [1]; > 10 µM (inactive) in assay [2]; 5.64 µM (inactive) in assay [3]; 3.86 µM (inactive) in [4]; > 10 µM (inactive) in assay [5]; > 10 µM (inactive) in [6]. Also, the GI50 in [7] was 0.851 µM (active); in assay [8] it was > 10 µM (inactive); in [18], 7.41 µM (inactive); in assay [9] it was > 10 µM (inactive); in assay [10], 6.27 µM; in [11], > 10 µM (inactive). In addition, the GI50 is > 10 µM (inactive) in [12]; 6.7 µM (inactive) in assay [13]; > 10 µM (inactive) in [17]; > 10 µM (inactive) in assay [14]; 3.62 µM (inactive) in assay [15].
Consider `c1ccc2c(c1)[nH]c1c[nH]c3c4cccnc4nc-3c12`, for which the GI50 is 25.6 µM (inactive) in assay [1]; 20 µM (inactive) in assay [2]; 21.5 µM (inactive) in [3]; 24.4 µM (inactive) in [4]; 18.2 µM (inactive) in assay [5]; 21.2 µM (inactive) in assay [6]. The GI50 in [7] is 19.5 µM (inactive); in assay [8], 17.1 µM (inactive); in assay [9] it was 19.4 µM (inactive); in [10] it was 15.3 µM; in assay [11] it was 19.3 µM (inactive); in assay [13], 29.9 µM (inactive). Further, the GI50 was 14.5 µM (inactive) in assay [14] and 17.7 µM (inactive) in assay [15].
With `C=C1C(=O)OC2/C=C(\C)C(OC(C)=O)C3OC3C(C)(O)CC(OC(=O)/C(C)=C/C)C12` (configuration not stated), the GI50 in assay [1] is 8.69 µM (inactive); in assay [2] it was 18.7 µM (inactive); in assay [3] it was 4.35 µM (inactive); in [4] it was 5.05 µM (inactive); in assay [5], 21.9 µM (inactive); in assay [6] it was 4.95 µM (inactive). Also, the GI50 in assay [7] is 15.3 µM (inactive); in [8], 9.93 µM (inactive); in assay [9] it was 13.7 µM (inactive); in [10], 12.8 µM; in assay [11] it was 14.9 µM (inactive); in [12], 14.7 µM (inactive). Besides, the GI50 in assay [13] is 19.1 µM (inactive); in assay [14], 2.38 µM (inactive); in assay [15], 2.96 µM (inactive).
Take `COc1cc2c(cc1O)C1C(O)C(O)C=C3CCN(C2)C31` (configuration not stated): the GI50 in assay [1] was 0.587 µM (active); in assay [2], 2.11 µM (inactive); in assay [3] it was 2.51 µM (inactive); in assay [4], 3.15 µM (inactive); in assay [5], 2.65 µM (inactive); in assay [6], 2.76 µM (inactive). Moreover, the GI50 in assay [7] was 0.76 µM (active); in assay [8] it was 2.05 µM (inactive); in [9], 1.46 µM (inactive); in assay [10], 3.61 µM; in [11], 3.17 µM (inactive); in assay [12] it was 2.05 µM (inactive). In addition, the GI50 in assay [13] was 2.92 µM (inactive); in assay [14] it was 1.9 µM (inactive); in [15] it was 2.08 µM (inactive).
In the case of `CC(CCc1ccc2c(c1)c(N)c1ccc(N)cc1[n+]2[O-])CC(C)(C)C` (configuration not stated), the GI50 in assay [1] is 1.87 µM (inactive); in assay [2] it was 1.63 µM (inactive); in assay [3], 0.621 µM (active); in assay [4] it was 1.09 µM (active); in [5], 2.07 µM (inactive); in [6] it was 2.06 µM (inactive). The GI50 is 1.52 µM (inactive) in assay [7]; 1.72 µM (inactive) in assay [8]; 1.65 µM (inactive) in assay [9]; 4.26 µM in assay [10]; 1.22 µM (inactive) in assay [11]; 1.99 µM (inactive) in assay [12]. For the same compound, the GI50 is 1.83 µM (inactive) in [13], 1.47 µM (inactive) in [14] and 1.62 µM (inactive) in assay [15].
Regarding `CC1(C)c2ccccc2N2C(c3ccccc3)=NOC21C` (configuration not stated), the GI50 in assay [1], in assay [2], in [3], in [4], in assay [5] and in assay [6] was > 100 µM (inactive) throughout. In addition, the GI50 in assay [7] was > 100 µM (inactive); in assay [8], > 100 µM (inactive); in assay [9], > 100 µM (inactive); in [10], > 100 µM; in assay [11] it was > 100 µM (inactive); in assay [12], > 100 µM (inactive). The GI50 in assay [13], in assay [14] and in assay [15] was > 100 µM (inactive) each time.
As for `CC(=O)O[C@H]1C(=O)[C@@]2(C)C([C@H](OC(=O)c3ccccc3)[C@]3(O)C[C@H](OC(=O)[C@H](O)[C@H](NC(=O)c4ccccc4)c4ccc(Cl)cc4)C(C)=C1C3(C)C)C1(OC(C)=O)CO[C@@H]1C[C@@H]2O` (some centres not stated), the GI50 was 0.00239 µM (active) in [1]; 0.000678 µM (active) in assay [2]; 0.000807 µM (active) in assay [3]; 0.01 µM (active) in assay [4]; < 0.0001 µM (active) in [5]; 0.00157 µM (active) in assay [6]. Moreover, the GI50 in assay [7] is < 0.0001 µM (active); in assay [8], 0.00115 µM (active); in assay [9], 0.000736 µM (active); in [10] it was 0.516 µM; in assay [11], 0.000106 µM (active); in [12], 0.000282 µM (active). The GI50 in assay [13] was 0.00839 µM (active); in assay [14] it was 0.151 µM (active); in [15], 0.000119 µM (active).
